The subject of test [1] is LPS-induced rectal hypersensitivity. Kind of test: LPS-induced rectal hypersensitivity in rats (rectal distension, abdominal contractions). It counts as in vivo, rat. As to conditions: for inhibition of the number of abdominal contractions induced by rectal distension: distension at 0.4 ml, LPS treated rats. As for the experimental part: Animals are surgically prepared for electromyography: rats are anaesthetized by intraperitoneal injection of acepromazine (0.6 mg/kg) and ketamine (120 mg/kg). […] Electrodes are exteriorized on the back of the neck and protected by a glass tube attached to the skin. Animals are individually housed in polypropylene cages and kept in a temperature-controlled room (21° C.). Food (UAR pellets, Epinay, France) and water are provided ad libitum.
Electromyographic recordings begin five days after surgery. The electrical activity of abdominal striated muscles is recorded with an electroencephalograph machine (Mini VIII Alvar, Paris, France) using a short time constant (0.03 s) to remove low-frequency signals (<3 Hz) and a paper speed of 3.6 cm/min. Spike bursts are recorded as an index of abdominal contractions.
Distension procedure: Rats are placed in plastic tunnels (6 cm diameter×25 cm long), where they cannot move, escape, or turn around, in order to prevent damage to the balloon. Animals are accustomed to this procedure for four days before rectal distension in order to minimize stress reactions during experiments. The balloon used for distension is an arterial embolectomy catheter (Fogarty, Edwards Laboratories Inc.). Rectal distension is performed by insertion of the balloon (2 mm diameter×2 cm long) into the rectum, at 1 cm from the anus, and catheter is fixed at the base of the tail. It is inflated progressively with tepid water by steps of 0.4 ml, from 0 to 1.2 ml, each step of inflation lasting 5 min. To detect possible leakage, the volume of water introduced in the balloon is checked by complete removal with a syringe at the end of the distension period.
Experimental protocol: Rats are injected i.p. with LPS (1 mg/kg (Escherichia coli, serotype O111:B4) Sigma-Aldrich chemical Co., St Louis, Mo.) or its vehicle, and rectal distension with concomitant electromyographic recording of abdominal contractions is performed 9 and 12 h after this administration. To determine the antinociceptive properties of gabapentin and the compound of formula Ia in hyperalgesia conditions, gabapentin (10 and 30 mg/kg) and the compound of formula Ia (0.01, 0.03 and 0.1 mg/kg) or the vehicle (NaCl 0.9% 0.3 ml/rat) are administered per os 1 h before rectal distension but preceded (12 h) by injection of LPS (1 mg/kg i.p.).
Drugs: All compounds were dissolved in sterile NaCl (0.9% isotonic saline) immediately before use.
Statistics: Statistical analysis of the number of abdominal contractions occurring during each period of rectal distension is performed by one-way ANOVA followed by parametric Student's unpaired t test.

Test [2] deals with TNBS-induced chronic visceral allodynia. As to the kind of experiment: TNBS-induced chronic visceral allodynia in rats (colonic distension). It counts as in vivo, rat. Conditions: for Inhibition at 1 h (%) of the TNBS-induced decrease in the pain threshold: 1 h before colonic distension, rats. As for the experimental part:
In this experimental model of colonic distension in awake rats, previous injection of TNBS into the proximal colon had lowered the visceral pain threshold.
Male Sprague-Dawley rats weighing 340-400 g are used. The animals are housed 3 per cage in a regulated environment (20±1° C., 50±5% humidity, with light 8:00 am to 8:00 pm). At day 0, under anesthesia (ketamine 80 mg/kg ip.; acepromazine 12 mg/kg ip.), the injection of TNBS (50 mg/kg in ethanol 30%), or saline (1.5 ml/kg) for control rats, is performed into the proximal colon wall (1 cm from the cecum). After the surgery, animals are individually housed in polypropylene cages and kept in a regulated environment (20±1° C., 50±5% humidity, with light 8:00 a.m. to 8:00 p.m.) during 7 days. At day 7 after TNBS administration, a balloon (5-6 cm length) is inserted by anus, and kept in position (tip of balloon 5 cm from the anus) by taping the catheter to the base of the tail. Oral administration of gabapentin or the compound of formula Ia is performed 1 h before the colonic distension cycle: the balloon is progressively inflated by steps of 5 mm Hg (0.667 kPa), from 0 to 75 mm Hg, each step of inflation lasting 30 s. Each cycle of colonic distension is controlled by a standard barostat. The threshold (mm Hg) corresponds to the pressure which produced the first abdominal contraction, and the cycle of distension is then discontinued. The colonic threshold is determined after performance of four cycles of distension on the same animal.
Data is analyzed by comparing test compound-treated groups with a TNBS only-treated group and the control group. Mean and SEM are calculated for each group. The antiallodynic activity of each oral dose of the test compound is calculated as follows: [formula]
where A=mean threshold of the test compound-treated group,
T=mean threshold of the TNBS only-treated group,
C=mean threshold of the control group.
The results measured in the test compound-treated groups are expressed in % inhibition of the TNBS-induced decrease in the pain threshold. Statistical significance between each group was determined by using a one-way ANOVA followed by Student's unpaired t-test; differences were considered statistically significant at p<0.05.

Test [3] has the same test system. Conditions: cited from earlier work.

As a reminder, the Inhibition is the drop in the measured response relative to a control, in per cent. Read a high Inhibition as a response far below the control. Broadly, the ED50 is the dose at which the effect has come halfway, by size or by number of responders.

Like-named read-outs stand apart in the source and are kept apart here.

Regarding “1-(aminomethyl)cyclohexane acetic acid [gabapentin]”, the “inhibition of the number of abdominal contractions induced by rectal distension” value in test [1] (10 mg/kg p.o., not significant) is recorded as 24.9%; in test [1] (30 mg/kg p.o.), 85.3%. Besides, the “Inhibition at 1 h (%) of the TNBS-induced decrease in the pain threshold” value is given as 14.7 ± 5.1% in test [2] (100 mg/kg p.o.), 48.6 ± 13.3% in test [2] (300 mg/kg p.o.), 64.9 ± 10.5% in test [2] (500 mg/kg p.o.) and 75.2 ± 6.1% in test [2] (1000 mg/kg p.o.). In addition, the “median effective dose (ED50), antiallodynic activity” value in test [2] (p.o., TNBS-treated rats) is given as 321 mg/kg. In addition, in test [3] (model of chronic allodynia (Diop et al. 1998)), the “effect on TNBS-induced colonic hypersensitivity” value is reported as “suppress”. For the same compound, the “effect on colonic threshold” value in test [3] (s.c. route, control conditions) is on record as “not to modify the colonic threshold”.
As for `NC[C@]1(CC(=O)O)C[C@H]2CC[C@H]2C1` [compound of formula Ia, (1α,3α,5α)-3-aminomethyl-bicyclo[3.2.0]heptane-3-acetic acid], the “effect on the number of abdominal contractions induced by rectal distension” value in test [1] (0.01, 0.03 and 0.1 mg/kg po, distension at 0.4 ml after LPS treatment (FIG. 1)) is given as “inhibits in a dose-related manner”. In addition, in test [1] (LPS-induced rectal hypersensitivity model, p.o.), the “fold more potent than gabapentin” value is recorded as “about 500 fold”. Besides, the ED50 in test [1] (Rattus norvegicus, po, distension at 0.4 ml after LPS treatment, read-out: ED50, inhibition of abdominal contractions induced by rectal distension) came to 0.037 mg/kg; in test [2] (Rattus norvegicus, po, TNBS-treated rats, read-out: median effective dose (ED50), antiallodynic activity) it was 14.4 mg/kg. Besides, the “Inhibition at 1 h (%) of the TNBS-induced decrease in the pain threshold” value in test [2] (3 mg/kg p.o.) turned out to be 21.7 ± 3.0%; in test [2] (10 mg/kg p.o.) it was 34.2 ± 5.7%; in test [2] (30 mg/kg p.o.) it was 58.8 ± 6.2%; in test [2] (60 mg/kg p.o.), 90.4 ± 9.8%.
As for `CN1CC[C@]23c4c5ccc(O)c4O[C@H]2[C@@H](O)C=C[C@H]3[C@H]1C5` [morphine], in test [3] (s.c., both TNBS-treated animals and controls), the “effect on colonic threshold” value was “increased the colonic threshold”.

(Values after patent US6784208B2, “Method for preventing and treating visceral pain and gastrointestinal disorders” (Warner-Lambert Company, priority 2001, dated 2004).)
